Measured values as given in the NIST ThermoML archive (doi:10.1016/j.jct.2015.08.010).
± gives the expanded uncertainty stated by the source.

Experiments:
[1] = 100 kPa, Liquid; for viscosity: Falling or rolling sphere viscometry; for mass density: Vibrating tube method
[2] = xn = mol fraction of the nth substance listed; conditions: 100 kPa, Liquid, Falling or rolling sphere viscometry, x2 = 0

viscosity ([1]; 293.15 K) [mPa·s]	mass density ([1]; 293.15 K) [kg/m3]	viscosity ([1]; 298.15 K) [mPa·s]	mass density ([1]; 298.15 K) [kg/m3]	viscosity ([1]; 303.15 K) [mPa·s]	mass density ([1]; 303.15 K) [kg/m3]	viscosity ([1]; 308.15 K) [mPa·s]	mass density ([1]; 308.15 K) [kg/m3]	viscosity ([1]; 313.15 K) [mPa·s]	mass density ([1]; 313.15 K) [kg/m3]	viscosity ([2]; 293.15 K) [mPa·s]	viscosity ([2]; 298.15 K) [mPa·s]	viscosity ([2]; 303.15 K) [mPa·s]	viscosity ([2]; 308.15 K) [mPa·s]	viscosity ([2]; 313.15 K) [mPa·s]	Structure (SMILES)
47.82 ± 1.2	1053.63 ± 4.3	34.94 ± 0.85	1049.78 ± 4.3	26.36 ± 0.64	1045.94 ± 4.3	20.5 ± 0.49	1042.11 ± 4.2	16.28 ± 0.39	1038.28 ± 4.2						C1CCC2=NCCC[NH+]2CC1.c1c[n-]cn1 [1,8-diazabicyclo[5.4.0]undec-7-enium imidazolide]
1.002 ± 0.021		0.89 ± 0.02		0.797 ± 0.017		0.718 ± 0.015		0.651 ± 0.014							O [water]
										1.002 ± 0.021	0.89 ± 0.02	0.797 ± 0.017	0.718 ± 0.015	0.651 ± 0.014	O [water] + C1CCC2=NCCC[NH+]2CC1.c1c[n-]cn1
